These results are taken from patent US9394338B2, “Glutathione analogs and uses thereof” (REGENTS OF THE UNIVERSITY OF MINNESOTA, priority 2011, dated 2016).

Series [1] is described as follows: Non-protein thiols in plasma and brain (DTNB). It is filed as in vivo, C57BL/6 mice. The protocol:
Detection of Non-Protein Thiols in Plasma and Brain. Wild type C57BL/6 mice at the age of six to eight weeks (4 per group) were treated with Ψ-GSH i.p and orally. Mice were euthanized by overdose of ketamine and xylazine at the desired time-points from the administration of the drug (0, 0.5, 1, 2 and 4 hours after drug administration). Brain and plasma samples were collected. Brains were perfused with ice-cold 0.9% NaCl, and cut sagittally into left and right hemispheres. The right hemisphere was fixed in Zamboni's fixative as described under Immunohistochemistry. The left hemispehere was immediately frozen in liquid nitrogen and utilized in further biochemical analysis. Brain tissue was homogenized in ice-cold buffer (50 mM phosphate, pH 7.0, containing 1 mM EDTA containing protease inhibitors) containing 5% sulfosalicylic acid. After homogenization, samples were centrifuged at 8000×g for 10 min at 4° C. The clear supernatant was transferred to a new tube and used for analysis of free thiol concentration.
Blood was collected in heparin-coated tubes (Fisher, Pittsburgh, Pa.) and immediately centrifuged at 5000×g for 10 min at 4° C. […]
Assay Conditions: 150 μl of Tris.HCl, pH 8.9 (Trizma base, 0.2 M; EDTA 0.02 M)+20 μl of DTNB (1 mg/mL in methanol)+50 μl of supernatant from TCA precipitation. The changes in absorbance were measured at 412 nm after […] incubation in dark at room temperature.

A further series has as its system APP/PS1 mice. In words: Immunohistochemistry of Aβ plaques in brain. Type of series: in vivo. As to the method: Efficacy Study Design. To determine the effect of intraperitoneal and oral Ψ-GSH treatment, the study was divided in four groups (10 mice/group). 1. APP/PS1 mice-vehicle control, 2. APP/PS1 mice-Ψ-GSH i.p. 500 mg/kg, 3. APP/PS1 mice-Ψ-GSH oral 500 mg/kg, 4. Non-transgenic wild type mice-vehicle control. All the animals in the above-said groups were treated with saline or Ψ-GSH three times a week for 12 weeks, starting at the age of three to four months. Eleven weeks after the start of the treatment, the animals were tested in the Morris water maze, and twelve weeks after the start of the treatment, the animals were sacrificed for histopathological analysis.
Immunohistochemistry. Mice were anesthetized, and their brains were removed, cut sagittaly. Following post-fixation of right hemisphere in Zamboni's fixative (4% paraformaldehyde and 15% picric acid in 0.25 M sodium phosphate, pH 7.5) for 48 h before being cryopreserved in a 30% (wt/vol) sucrose in phosphate-buffered saline solution. Brains were then were embedded in O.C.T. Tissue Tek Compound (Miles Scientific) and were cryosectioned at 10 μm thickness for immunohistochemistry, mounted on Superfrost™ microscope slides (Erie Scientific, Portsmouth N.H.) and stored at […] until their utilization.
The brain sections were stained with a primary antibody against 0-amyloid peptide (Cell signaling, Cat. #2454) at a dilution of 1:200 in PBS. […]

The next series concerns Swiss Webster Mice. The series is described as follows: ACP (acetaminophen) overdose rescue and effects on normal liver. Type of series: in vivo. The protocol: 36-Male Swiss Webster Mice (HSD) were fasted over-night and then brought to the lab at 8:00 am the following day and weighed. Food was kept out of the cages until after the final drug injection. Mice were divided into treatment groups as below in Table 2.
Thirty minutes post overdose with 370 mg/kg ACP, the following were evaluated for the groups in Table 2:
N-acetylcysteine (NAC) at 7.35 mmol/kg;
Ψ-GSH at three different doses, 3.67, 2.45 and 1.22 mmol/kg; and
examine effects of Ψ-GSH on normal liver at rescue doses.

In another series the test system is GSH uptake transporters. In words: Inhibition of [3H]-GSH uptake. Type of series: cell-based, human. Conditions: 100 nM [3H]-GSH; 1 μM, 100 nM and 10 nM compound. The protocol:
Inhibition of Glutathione Uptake by Ψ-GS. The uptake experiment was performed under conditions described previously. Briefly, the cells were seeded in 24-well plates. After an overnight incubation, the cells were treated with 100 nM concentration of [^3H]-GSH in uptake buffer (128 mM NaCl, 4.73 mM KCl, 1.25 mM CaCl2, 1.25 mM MgSO4, and 5 mM HEPES, pH =7.4) in the presence or absence of Ψ-GSH at concentrations of 10, 100 and 1000 nM at 37° C. under 5% CO2 for 30 min. At the end of incubation, the cellular uptake was terminated by washing three times with ice-cold PBS. Any remaining buffer was aspirated, and the cells were lysed with 1 ml of warm 0.1% SDS/0.1 N NaOH solution for a minimum of 45 min. Intracellular levels of radioactive GSH were determined using liquid scintillation counting. All resulting levels of GSH uptake were normalized to the total protein in each well using a BCA protein assay. All uptake experiments were performed in triplicate and statistically significant differences in uptake were evaluated using Graphpad Prism 5.1 (Graphpad, La Jolla, Calif.) using a one-way ANOVA followed by a Dunnett's post hoc test with a false discovery rate of 0.05.

Consider `N[C@@H](CNC(=O)N[C@@H](CS)C(=O)NCC(=O)O)C(=O)O` [Ψ-GSH, γ-Gla-Cys-Gly-OH], for which the plasma thiol level result in series [1] (oral 500 mg/Kg, over 2 hours) is on record as “reducing to basal levels”; in series [1] (single i.p. 500 mg/Kg, at 4 hours), “dropped to basal levels”. The “number and size of Aβ plaques” value with APP/PS1 mice (i.p.) is reported as “drastically reduced”. Also, in the series on APP/PS1 mice (oral), the “Aβ plaques relative to controls” value is on record as “modest decrease”. In addition, in the series with Swiss Webster Mice (370 mg/kg ACP + rescue agent), the “liver histopathology after ACP overdose” value is given as “absence of necrotic tissue”. For the same molecule, the “ALT levels after ACP overdose” value in the series with Swiss Webster Mice (370 mg/kg ACP, rescue 30 min later at half molar equivalent of NAC) is “decrease in ALT levels comparable to that caused by NAC”. Also, in the series on Swiss Webster Mice (mouse, in vivo), the “tolerability when given alone” value was “safe and well tolerated”. The “[3H]-GSH uptake by SH-SY-5Y cells” value in the series on GSH uptake transporters is on record as “inhibited in a dose-dependent manner”.
